Results reported in PMC7565988, “Insight into the Anticancer Activity of Copper(II) 5-Methylenetrimethylammonium-Thiosemicarbazonates and Their Interaction with Organic Cation Transporters” (Biomolecules, 2020).
Like-named read-outs stand apart in the source and are kept apart here.

Legend:
[1] = parameters: method as in doi:10.1002/ejic.201200360; details: pH 7.4; cited from earlier work
[2] = parameters: method as in doi:10.1002/ejic.201200360; details: pure water; cited from earlier work
[3] = target: T1, OCT3 (Homo sapiens, UniProt O75751); parameters: method as in PMID 14576340; details: reference inhibitor; cited from earlier work
T1 construct: expressed in transfected cells
T1 sequence (O75751 1-556): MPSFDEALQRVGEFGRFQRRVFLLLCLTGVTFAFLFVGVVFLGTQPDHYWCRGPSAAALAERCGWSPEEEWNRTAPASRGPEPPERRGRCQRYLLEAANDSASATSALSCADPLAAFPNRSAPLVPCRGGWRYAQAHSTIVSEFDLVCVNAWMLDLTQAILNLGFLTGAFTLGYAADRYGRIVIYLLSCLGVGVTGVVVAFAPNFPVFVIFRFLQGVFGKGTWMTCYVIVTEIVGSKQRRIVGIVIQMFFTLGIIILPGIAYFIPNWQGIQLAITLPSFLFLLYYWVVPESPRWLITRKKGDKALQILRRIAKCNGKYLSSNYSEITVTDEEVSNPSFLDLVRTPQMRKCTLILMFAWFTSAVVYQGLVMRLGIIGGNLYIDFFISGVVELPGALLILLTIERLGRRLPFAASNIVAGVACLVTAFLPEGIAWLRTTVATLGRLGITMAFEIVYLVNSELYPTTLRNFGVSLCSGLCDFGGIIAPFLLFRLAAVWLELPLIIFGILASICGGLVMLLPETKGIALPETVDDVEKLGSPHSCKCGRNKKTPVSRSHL

[4] = target: T2, OCT2 (Homo sapiens, UniProt O15244); parameters: method as in PMID 14576340; details: reference inhibitor; cited from earlier work
T2 construct: expressed in transfected cells
T2 sequence (O15244 1-555): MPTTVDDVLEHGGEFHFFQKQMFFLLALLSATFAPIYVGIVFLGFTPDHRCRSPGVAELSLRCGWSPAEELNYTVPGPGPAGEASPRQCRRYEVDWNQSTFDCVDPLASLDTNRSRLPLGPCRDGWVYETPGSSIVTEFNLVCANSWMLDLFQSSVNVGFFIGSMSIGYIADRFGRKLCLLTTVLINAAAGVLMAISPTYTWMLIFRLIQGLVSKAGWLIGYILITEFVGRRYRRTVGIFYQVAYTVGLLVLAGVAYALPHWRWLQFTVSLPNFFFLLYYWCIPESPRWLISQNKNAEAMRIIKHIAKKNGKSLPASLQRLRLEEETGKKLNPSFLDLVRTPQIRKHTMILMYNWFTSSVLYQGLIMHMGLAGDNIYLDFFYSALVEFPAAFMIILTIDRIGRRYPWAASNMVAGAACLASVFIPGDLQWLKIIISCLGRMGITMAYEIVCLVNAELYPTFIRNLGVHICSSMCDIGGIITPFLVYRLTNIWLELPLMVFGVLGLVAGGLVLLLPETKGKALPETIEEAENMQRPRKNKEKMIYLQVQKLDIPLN

[5] = target: T3, OCT1 (Homo sapiens, UniProt O15245); parameters: method as in PMID 14576340; details: reference inhibitor; cited from earlier work
T3 construct: expressed in transfected cells
T3 sequence (O15245 1-554): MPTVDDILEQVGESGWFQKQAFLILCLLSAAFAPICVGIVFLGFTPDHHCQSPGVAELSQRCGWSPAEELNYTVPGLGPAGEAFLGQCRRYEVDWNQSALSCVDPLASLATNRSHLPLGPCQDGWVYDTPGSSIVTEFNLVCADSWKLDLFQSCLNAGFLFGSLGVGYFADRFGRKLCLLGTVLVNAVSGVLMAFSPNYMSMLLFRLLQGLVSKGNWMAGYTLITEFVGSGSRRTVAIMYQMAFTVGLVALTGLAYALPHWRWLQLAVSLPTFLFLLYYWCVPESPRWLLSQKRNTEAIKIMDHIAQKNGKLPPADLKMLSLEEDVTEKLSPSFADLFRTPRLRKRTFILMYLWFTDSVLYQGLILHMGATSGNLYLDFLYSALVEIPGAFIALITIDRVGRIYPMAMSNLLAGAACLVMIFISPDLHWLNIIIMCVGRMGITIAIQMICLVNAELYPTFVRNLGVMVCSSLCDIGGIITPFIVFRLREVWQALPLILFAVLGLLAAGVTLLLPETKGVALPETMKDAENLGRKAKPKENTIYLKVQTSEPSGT

[6] = tested on: SH-SY5Y neuroblastoma cells; experiment: MTT cytotoxicity (24 h) / antiproliferation (72 h) assay; format: cell-based, human; details: MTT
Protocol: SH-SY5Y (ATCC® CRL-2266™) neuroblastoma cell line was purchased from LGC Promochem, Teddington, UK. The cell line was cultured in Eagle’s Minimal Essential Medium (EMEM, containing 4.5 g/L glucose) supplemented with a non-essential amino acid mixture, a selection of vitamins and 10% heat-inactivated foetal bovine serum. The cell line was incubated at 37 °C, in a 5% CO2, 95% air atmosphere.
(§1) In the study non-cancerous human embryonic lung fibroblast MRC-5, human colonic adenocarcinoma cell line (doxorubicin-sensitive Colo 205, multidrug resistant Colo 320) and neuroblastoma cell line SH-SY5Y were used to determine the effect of compounds on cell growth. The effects of increasing concentrations of compounds on cell growth were tested in 96-well flat-bottomed microtiter plates. The compounds were diluted in a volume of 100 μL of medium.
The adherent human embryonal lung fibroblast and SH-SY5Y neuroblastoma cells were cultured in 96-well flat-bottomed microtiter plates, using EMEM supplemented with 10% heat-inactivated foetal bovine serum. The density of the cells was adjusted to 2 × 10^4 cells in 100 μL per well, the cells were seeded for 24 h at 37 °C, 5% CO2, then the medium was removed from the plates containing the cells, and the dilutions of compounds previously made in a separate plate were added to the cells in 200 μL.
(§2) The culture plates were incubated at 37 °C for 24 h; at the end of the incubation period, 20 μL of MTT (thiazolyl blue tetrazolium bromide, Sigma) solution (from a stock solution of 5 mg/mL) were added to each well. After incubation at 37 °C for 4 h, 100 μL of sodium dodecyl sulfate (SDS) (Sigma) solution (10% in 0.01 M HCI) were added to each well and the plates were further incubated at 37 °C overnight. Cell growth was determined by measuring the optical density (OD) at 540/630 nm with Multiscan EX ELISA reader (Thermo Labsystems, Cheshire, WA, USA). […] Curves were fitted by GraphPad Prism software using the sigmoidal dose-response model (comparing variable and fixed slopes).
(§3) The method is similar to the one described in the assay for cytotoxic effect. […] The culture plates were incubated at 37 °C for 72 h and after the incubation time, the plates were stained with MTT according to the previous experimental protocol described for the cytotoxicity assay.

[7] = tested on: Colo 205 doxorubicin-sensitive colonic adenocarcinoma cells; experiment: as above; format: cell-based, human; details: read-out: Colo205 IC50
Protocol: Human doxorubicin-sensitive Colo 205 (ATCC-CCL-222) and multidrug resistant Colo 320 (overexpressing ABCB1 (MDR1)-LRP (ATCC-CCL-220.1)) colonic adenocarcinoma cell lines were purchased from LGC Promochem, Teddington, UK. The cells were cultured in RPMI 1640 medium supplemented with 10% heat-inactivated fetal bovine serum, 2 mM L-glutamine, 1 mM Na-pyruvate and 100 mM Hepes. The cell lines were incubated at 37 °C, in a 5% CO2, 95% air atmosphere. The semi-adherent human colon cancer cells were detached with Trypsin-Versene (EDTA) solution for 5 min at 37 °C.
as §1
In case of the colonic adenocarcinoma cells, the two-fold serial dilutions of compounds were prepared in 100 μL of RPMI 1640, horizontally. The semi-adherent colonic adenocarcinoma cells were treated with Trypsin–Versene (EDTA) solution. The cells were adjusted to a density of 2 × 10^4 cells in 100 μL of RPMI 1640 medium, and were added to each well, with the exception of the medium control wells. The final volume of the wells containing compounds and cells was 200 μL.
as §2, §3

NC(=S)N/N=C/c1ccccc1O [STSC, salicylaldehyde thiosemicarbazone]
logD7.4 [1]: +1.74
pKa of the phenolic OH moiety [2]: 8.88

CCN1/C(=C/c2ccc3ccccc3[n+]2CC)C=Cc2ccccc21 [D-22, decynium-22]
IC50 [3]: 90 ± 10 nM
IC50 [4]: 1130 ± 190 nM
IC50 [5]: 980 ± 310 nM

N.N.[Cl][Pt][Cl] [Cisplatin, reference compound]
IC50 ([6]; 24 h exposure): 26000 ± 2380 nM
IC50 ([6]; 72 h exposure): 650 ± 80 nM
IC50 ([7]; 24 h exposure): 68800 ± 5080 nM
IC50 ([7]; 72 h exposure): 8140 ± 1590 nM
